Reference: patent publication US20250197374A1, “WEE1 DEGRADING COMPOUNDS AND USES THEREOF” (BRISTOL-MYERS SQUIBB COMPANY, priority 2023, published 2025)

Columns and labels:
Format in all cases: cell-based
MDA-MB-231 cells = test: MDA-MB-231 cell proliferation assay (Cell-Titer-Glo, 120 hr); settings: for EC50: Homo sapiens, MDA-MB-231, 120 h, read-out: MDA-MB 231 Cell Prolif. 120 hr EC50; for MDA-MB 231 Cell Prolif. 120 hr YMin (%): minimal percent of DMSO control observed
In short: (§1)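 Growth inhibition was read as CellTiter-Glo luminescence after 120 h at 37 °C in RPMI/10% FBS, with 400 MKN45 or 800 MDA-MB-231 cells seeded per well. Compounds were tested in 10-point half-log series starting at 1 or 10 uM (0.1% DMSO), in triplicate for MKN45 and duplicate for MDA-MB-231. EC50 values are four-parameter fits to %DMSO control, and Ymin-obs is the minimal observed %DMSO.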

WEE1 = target: T1, WEE1 (Homo sapiens, UniProt P30291+Q96SW2); test: WEE1-ePL degradation assay (293T-LentiX, InCELL Hunter luminescence, 4 hr); settings: for DC50: LentiX-HEK293T cells expressing WEE1-ePL, 4 hr incubation, read-out: 293T-LentiX WEE1-ePL Degradation 4 hr EC50; for 293T-LentiX WEE1-ePL Degradation 4 hr YMin (%): lower limit of fit, % of DMSO control signal remaining
T1 construct: C-terminal ePL-tagged (DiscoverX, Fremont, CA) full-length WEE1 expression construct; expressed in transfected cells; host or cells: LentiX-HEK293T (Invitrogen), lentivirally transduced; the cells also over-express GSPT1-GN
T1 sequence (P30291 whole entry): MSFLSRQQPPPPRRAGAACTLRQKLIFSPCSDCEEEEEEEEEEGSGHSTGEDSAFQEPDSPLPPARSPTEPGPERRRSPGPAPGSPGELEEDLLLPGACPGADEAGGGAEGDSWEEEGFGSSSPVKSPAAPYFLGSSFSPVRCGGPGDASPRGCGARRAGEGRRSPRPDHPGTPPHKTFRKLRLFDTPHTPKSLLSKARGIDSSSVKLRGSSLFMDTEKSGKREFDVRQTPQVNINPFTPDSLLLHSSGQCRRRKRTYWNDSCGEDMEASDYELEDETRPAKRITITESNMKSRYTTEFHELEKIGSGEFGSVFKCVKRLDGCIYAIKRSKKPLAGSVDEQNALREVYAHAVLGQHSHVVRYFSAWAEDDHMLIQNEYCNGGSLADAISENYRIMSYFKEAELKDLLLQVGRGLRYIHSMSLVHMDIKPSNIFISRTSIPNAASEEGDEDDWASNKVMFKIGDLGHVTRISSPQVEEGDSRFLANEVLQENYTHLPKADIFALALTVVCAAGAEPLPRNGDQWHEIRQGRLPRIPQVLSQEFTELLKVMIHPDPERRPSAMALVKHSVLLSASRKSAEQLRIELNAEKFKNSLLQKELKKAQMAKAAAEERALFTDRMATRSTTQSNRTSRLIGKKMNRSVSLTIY
T1 sequence (Q96SW2 whole entry): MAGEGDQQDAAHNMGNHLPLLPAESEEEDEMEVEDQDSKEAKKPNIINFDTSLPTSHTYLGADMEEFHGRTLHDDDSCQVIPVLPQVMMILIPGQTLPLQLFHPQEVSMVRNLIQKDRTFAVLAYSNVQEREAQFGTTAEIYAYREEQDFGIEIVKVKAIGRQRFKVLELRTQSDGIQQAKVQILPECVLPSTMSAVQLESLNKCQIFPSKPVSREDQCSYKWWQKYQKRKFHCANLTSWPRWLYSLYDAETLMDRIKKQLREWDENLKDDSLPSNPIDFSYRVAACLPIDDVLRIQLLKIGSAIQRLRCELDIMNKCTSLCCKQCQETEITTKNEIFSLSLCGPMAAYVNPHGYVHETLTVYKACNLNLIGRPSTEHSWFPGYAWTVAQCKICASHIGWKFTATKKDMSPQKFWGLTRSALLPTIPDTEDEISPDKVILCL
T1 sequence (Q16531 whole entry partner): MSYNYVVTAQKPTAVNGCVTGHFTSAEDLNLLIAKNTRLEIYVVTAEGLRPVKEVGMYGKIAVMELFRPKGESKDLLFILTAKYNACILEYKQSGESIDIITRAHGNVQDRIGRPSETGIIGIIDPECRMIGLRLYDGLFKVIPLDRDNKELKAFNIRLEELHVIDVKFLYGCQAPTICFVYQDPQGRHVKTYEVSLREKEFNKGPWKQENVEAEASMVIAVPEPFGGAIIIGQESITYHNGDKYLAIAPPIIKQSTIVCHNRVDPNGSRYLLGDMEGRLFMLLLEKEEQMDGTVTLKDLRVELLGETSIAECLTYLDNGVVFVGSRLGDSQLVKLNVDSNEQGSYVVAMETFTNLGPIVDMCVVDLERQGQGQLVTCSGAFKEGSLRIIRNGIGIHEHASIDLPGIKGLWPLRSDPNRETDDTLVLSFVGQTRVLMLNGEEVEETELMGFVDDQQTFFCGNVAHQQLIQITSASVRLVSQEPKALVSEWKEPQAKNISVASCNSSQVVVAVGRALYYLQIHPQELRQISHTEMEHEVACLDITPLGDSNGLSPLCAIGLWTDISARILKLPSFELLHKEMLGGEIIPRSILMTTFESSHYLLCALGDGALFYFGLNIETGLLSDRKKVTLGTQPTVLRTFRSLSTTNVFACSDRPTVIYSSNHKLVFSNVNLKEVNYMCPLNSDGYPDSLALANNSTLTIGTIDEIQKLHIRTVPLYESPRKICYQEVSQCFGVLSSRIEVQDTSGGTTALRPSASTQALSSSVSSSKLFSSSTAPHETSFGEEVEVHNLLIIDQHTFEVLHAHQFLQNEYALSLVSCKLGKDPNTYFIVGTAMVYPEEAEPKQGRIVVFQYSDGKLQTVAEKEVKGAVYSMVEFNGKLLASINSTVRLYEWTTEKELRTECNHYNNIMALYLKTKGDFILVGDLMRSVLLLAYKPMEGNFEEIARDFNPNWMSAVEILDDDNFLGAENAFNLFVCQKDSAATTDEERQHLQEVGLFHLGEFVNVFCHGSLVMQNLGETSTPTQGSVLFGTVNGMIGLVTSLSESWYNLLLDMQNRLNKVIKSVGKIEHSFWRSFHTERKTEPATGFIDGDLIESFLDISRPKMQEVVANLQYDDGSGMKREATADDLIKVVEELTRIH
In short: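 EC50 comes from a four-parameter logistic fit of ePL luminescence (InCELL Hunter), with DMSO control defining Ymax. Compounds ran as 10-point 3-fold dilutions from 1 or 10 µM for 4 h at 37 °C. Cells were HEK293T-LentiX with ePL-tagged full-length WEE1 and over-expressed Cereblon-resistant GSPT1-GN.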

MKN45 cells = test: MKN45 cell proliferation assay (Cell-Titer-Glo, 120 hr); settings: for EC50: Homo sapiens, MKN-45, 120 h, read-out: MKN45 Cell Prolif. 120 hr EC50; for MKN45 Cell Prolif. 120 hr YMin (%): minimal percent of DMSO control observed
In short: as §1

SMILES | EC50 (MDA-MB-231 cells) [nM] | MDA-MB 231 Cell Prolif. 120 hr YMin (%) (MDA-MB-231 cells) | DC50 (WEE1) [nM] | 293T-LentiX WEE1-ePL Degradation 4 hr YMin (%) (WEE1) | EC50 (MKN45 cells) [nM] | MKN45 Cell Prolif. 120 hr YMin (%) (MKN45 cells)
COC[C@@H]1CN(Cc2ccc3nc(C4CCOCC4)cnc3c2)C[C@H]1Oc1ccc2c(c1)CN([C@H]1CCC(=O)NC1=O)C2=O [Example 136, (3S)-3-(5-{[(3S,4S)-4-(methoxymethyl)-1-{[2-(oxan-4-yl)quinoxalin-6-yl]methyl}pyrrolidin-3-yl]oxy}-1-oxo-2,3-dihydro-1H-isoindol-2-yl)piperidine-2,6-dione] | 287 | 91.8 | 2 | 31.9 | 41 | 26.6
O=C1CC[C@H](N2Cc3cc(O[C@@H]4CN(Cc5cc(F)c6nc(C7CCOCC7)ccc6c5)C[C@H]4CO)ccc3C2=O)C(=O)N1 [Example 139, (3S)-3-(5-{[(3S,4S)-1-{[8-fluoro-2-(oxan-4-yl)quinolin-6-yl]methyl}-4-(hydroxymethyl)pyrrolidin-3-yl]oxy}-1-oxo-2,3-dihydro-1H-isoindol-2-yl)piperidine-2,6-dione] | 133 | 65.9 | 2 | 20.2 | 5 | 10.3
O=C1CC[C@H](N2Cc3cc(O[C@@H]4CN(Cc5cc(F)c6ncc(N7CCOCC7)cc6c5)C[C@H]4COC(F)(F)F)ccc3C2=O)C(=O)N1 [Example 140, (3S)-3-(5-{[(3S,4S)-1-{[8-fluoro-3-(morpholin-4-yl)quinolin-6-yl]methyl}-4-[(trifluoromethoxy)methyl]pyrrolidin-3-yl]oxy}-1-oxo-2,3-dihydro-1H-isoindol-2-yl)piperidine-2,6-dione] | 56 | 24.8 | 1 | 25.3 | 1 | 8.3
COC[C@@H]1CN(Cc2cc(F)c3nc(N4CCN(C5COC5)CC4)ncc3c2)C[C@H]1Oc1ccc2c(c1)CN([C@H]1CCC(=O)NC1=O)C2=O [Example 141, (3S)-3-(5-{[(3S,4S)-1-({8-fluoro-2-[4-(oxetan-3-yl)piperazin-1-yl]quinazolin-6-yl}methyl)-4-(methoxymethyl)pyrrolidin-3-yl]oxy}-1-oxo-2,3-dihydro-1H-isoindol-2-yl)piperidine-2,6-dione] | 44 | 31.7 | 1 | 26.5 | 1 | 11.4
COC[C@@H]1CN(Cc2cc(F)c3nc(N4CCN(C5COC5)CC4)ccc3c2)C[C@H]1Oc1ccc2c(c1)CN([C@H]1CCC(=O)NC1=O)C2=O [Example 142, (3S)-3-(5-{[(3S,4S)-1-({8-fluoro-2-[4-(oxetan-3-yl)piperazin-1-yl]quinolin-6-yl}methyl)-4-(methoxymethyl)pyrrolidin-3-yl]oxy}-1-oxo-2,3-dihydro-1H-isoindol-2-yl)piperidine-2,6-dione] | 24 | 43.3 | – | 19.9 | 1 | 7.1
COC[C@@H]1CN(Cc2cc(F)c3nc(C4CCN(C5COC5)CC4)ccc3c2)C[C@H]1Oc1ccc2c(c1)CN([C@H]1CCC(=O)NC1=O)C2=O [Example 143, (3S)-3-(5-{[(3S,4S)-1-({8-fluoro-2-[1-(oxetan-3-yl)piperidin-4-yl]quinolin-6-yl}methyl)-4-(methoxymethyl)pyrrolidin-3-yl]oxy}-1-oxo-2,3-dihydro-1H-isoindol-2-yl)piperidine-2,6-dione] | 27 | 35.5 | 1 | 27.3 | 1 | 8.9
